Series [1] relates to tracheal smooth muscle. Nature of the series: Tracheaectasy: inhibition of histamin-induced contraction of circular slices of guinea pig trachea in Magnus tube. The note with it: contraction by 5.4×10^-4 M histamin, cumulative administration; for IC20: read-out: IC20 (concentration exhibiting the inhibition rate of 20%); for IC50: read-out: IC50 (concentration exhibiting the inhibition rate of 50%). Here is the method: A male guinea pig weighing about 300 g was beaten to death, and immediately drew the blood by cutting its arteriae femoral as pouring water. A trachea was picked out and cut lengthwise at the opposite side of tracheal smooth muscle and cut into circular slices between cartilages. The obtained seven circular slices of the trachea were tied like as a chain with a thread, and hung into Magnus tube.
After the circular slices of trachea were held for 60-90 minutes until it became stable (disappearence of convulsion), they were administered with 5.4×10^-4 M of histamin to be contracted. After the contraction reached to maximum, each test drug was cumulatively administered so as to inhibit the contraction caused by the histamin.

In series [2] the test system is trachea of humans. Nature of the series: Stimuli of trachea by spraying inhalation in humans. It is filed as in vivo, human. The settings on record: 10 μg/ml solution sprayed at 2 ml/min, ultrasonic inhaler. On the procedure:
The strength of stimuli to trachea of humans was evaluated by actual spraying inhalation.
Each test drug was dissolved with a small amount of ethyl alcohol, to which distilled water was added to prepare a solution containing test drug at a concentration of 10 μg/ml. Four panels (K, D, T and O) were sprayed into their throats with the each test solution at a rate of 2 ml/min using an ultrasonic inhaler (NE-U10B available from Omlon K.K.), and the strength of the stimuli was observed.

For series [3], the system named is airway resistance. Nature of the series: Inhibition of increase of airway resistance due to histamin in anesthetized guinea pig. It is filed as in vivo. The note with it: intravenous, histamin 3 μg/kg one minute later. On the procedure:
A male guinea pig weighing 300-400 g was intraperitoneally anesthetized with urethane 1.5 g/kg. The test animal was cannulated through the trachea, and then bromopanchlonium was intravenously administered at 0.3 mg/kg to make the test animal inactivate. The animal was respired using a vespirater for a small animal. The airway resistance was recorded on a recorder using a bronchospasin transducer. The administration of the test drug was made through a cannula into the jugular vein. The histamin was administered three times of each 3 μg/kg at 30 minutes intervals, and the increase of the airway resistance was determined. After the determination the test drug was intervenously administered, and then 4th administration of histamin was done after one minute. The increase of airway resistance due to histamin before and after the administration of the test drug was determined, from which inhibition rate of the increase due to the test drug was evaluated.

Where two headings read alike, the source gives them in different places.

For `CCC[C@H](C)CC(=O)CC[C@H]1[C@H](O)CC(=O)[C@@H]1C/C=C\CCCC(=O)OCC` [compound 58], in series [1] (Cavia porcellus), the IC20 is 1000 nM and the IC50 stood at 30000 nM.
Consider `CCCCCCCC(=O)CC[C@H]1[C@H](O)CC(=O)[C@@H]1C/C=C\CCCC(=O)OC` [compound 50], for which the IC20 in series [1] (Cavia porcellus) came out at 20000 nM.
As for `CCCCCC(=O)CCC1C(O)CC(=O)C1CC=CCC(C)CC(=O)OCC` (stereo not shown) [compound 26], in series [1], the IC20 was 1000 nM and the IC50 was found to be 7000 nM.
Consider `CCOC(=O)CCCCC(=O)C[C@H]1C(=O)C[C@@H](O)[C@@H]1CCC(=O)CCC(C)CC` (stereo partly shown) [compound 63], for which, in series [1] (Cavia porcellus), the IC20 worked out at 10000 nM.
For `CCCCC(C)(C)C(=O)CC[C@H]1[C@H](O)CC(=O)[C@@H]1CC(=O)CCCCC(=O)OCC` [compound 11], in series [1], the IC20 came to 800 nM and the IC50 came to 4000 nM.
Regarding `CCCCC(C)C(=O)CC[C@H]1[C@H](O)CC(=O)[C@@H]1CCCCCCC(=O)OC` (stereo partly shown) [compound 64], in series [1] (Cavia porcellus), the IC20 was 300 nM and the IC50 amounted to 1000 nM.
In the case of `CCCCCCCC(=O)CC[C@H]1[C@H](C)CC(=O)[C@@H]1C/C=C\CCCC(=O)OC` [compound 52], in series [1] (Cavia porcellus), the IC20 is 1000 nM.
In the case of `CCCCC(F)C(=O)CC[C@H]1[C@H](O)CC(=O)[C@@H]1CCCCCCC(=O)O` (stereo partly shown) [compound 62], the IC20 in series [1] (Cavia porcellus) came to 4000 nM.
As for `CCCCCCC(=O)CC[C@H]1[C@H](O)CC(=O)[C@@H]1CC(=O)CCCCC(=O)OCC` [compound 15], in series [1], the IC20 was found to be 500 nM and the IC50 is 4000 nM.
In the case of `CCCCC(C)C(=O)CCC1C(O)CC(=O)C1CC(=O)CCCCC(=O)OCC` (stereo not shown) [compound 10], in series [1], the IC20 is 100 nM and the IC50 came to 600 nM.
As for `COCCCCCC(=O)CC[C@H]1[C@H](O)CC(=O)[C@@H]1C/C=C\CC(C)CC(=O)OC` (stereo partly shown) [compound 44], in series [1] (Cavia porcellus), the IC20 was determined as 10000 nM.
For `CCCCC(F)C(=O)/C=C/[C@H]1[C@H](O)CC(=O)[C@@H]1C/C=C\CCCC(=O)O` (stereo partly shown) [compound 60], in series [1] (Cavia porcellus), the IC20 turned out to be 3000 nM and the IC50 came out at 7000 nM.
`CCCCC(C)C(=O)CC[C@H]1[C@H](O)CC(=O)[C@@H]1CC(=O)CCCCC(=O)OC` (stereo partly shown) [Test drug 9, 13,14-dihydro-6,15-diketo-16R,S-methyl-PGE1 methyl ester]: the “strength of stimuli to trachea, panel D” value in series [2] (panel D) is “-”. In addition, the “strength of stimuli to trachea, panel K” value in series [2] (panel K) is “-”. Besides, the “strength of stimuli to trachea, panel O” value in series [2] (panel O) is recorded as “-”. The “strength of stimuli to trachea, panel T” value in series [2] (panel T) is “-”.
On to `CCCCCC(=O)CC[C@H]1[C@H](O)CC(=O)[C@@H]1C/C=C\CC(C)CC(=O)OC` (stereo partly shown) [compound 25], for which, in series [1], the IC20 stood at 40000 nM.
On to `CCCCCCCCC(=O)CC[C@H]1[C@H](O)CC(=O)[C@@H]1C/C=C\CCCC(=O)OC` [compound 53], for which the IC20 in series [1] (Cavia porcellus) amounted to 10000 nM.
Take `COCCCCC(C)(C)C(=O)CC[C@H]1[C@H](O)CC(=O)[C@@H]1C/C=C\CCCC(=O)OC` [compound 45]: in series [1] (Cavia porcellus), the IC20 came to 2000 nM and the IC50 amounted to 10000 nM.
Consider `CCCCC(C)C(=O)CC[C@H]1[C@H](O)CC(=O)[C@@H]1C/C=C\CC(C)CC(=O)OC` (stereo partly shown) [compound 29], for which, in series [1], the IC20 is 600 nM and the IC50 came out at 7000 nM.
In the case of `CCC[C@H](C)CC(=O)/C=C/[C@H]1[C@H](O)CC(=O)[C@@H]1C/C=C\CCCC(=O)OCC` [compound 61], in series [1] (Cavia porcellus), the IC20 was 700 nM and the IC50 was 2500 nM.
Consider `CCCCC[C@H](O)/C=C/[C@H]1[C@H](O)CC(=O)[C@@H]1C/C=C\CCCC(=O)O` [compound 57], for which, in series [1] (Cavia porcellus), the IC20 is 10 nM and the IC50 was 100 nM.
Consider `CCCCC(C)C(=O)CCC1C(O)CC(=O)C1CC=CCCCC(=O)OCC` (stereo not shown) [compound 28], for which, in series [1], the IC20 was 700 nM and the IC50 turned out to be 7000 nM.
Regarding `CCCCCC(=O)/C=C/[C@H]1[C@H](O)CC(=O)[C@@H]1C/C=C\CCCC(=O)O` [compound 54], in series [1] (Cavia porcellus), the IC20 came out at 8000 nM and the IC50 is 30000 nM.
For the molecule `CCCCCC(F)C(=O)CC[C@H]1[C@H](O)CC(=O)[C@@H]1C/C=C\CCCC(=O)OC` (stereo partly shown) [compound 36], in series [1] (Cavia porcellus), the IC20 came to 500 nM and the IC50 was 5000 nM.
Taken in the same sequence, the figures for `CCC[C@H](C)CC(=O)CC[C@H]1[C@H](O)CC(=O)[C@@H]1C/C=C\CCCC(=O)OC` [compound 39] were 3000 nM and 60000 nM.
For `CCCCC(F)C(=O)/C=C/[C@H]1[C@H](O)CC(=O)[C@@H]1C/C=C\CCCC(=O)OC` (stereo partly shown) [compound 55], in that order: 2000 nM and 10000 nM.
For `CCCCC(F)(F)C(=O)CC[C@H]1[C@H](O)CC(=O)[C@@H]1C/C=C\CCCC(=O)O` [13,14-dihydro-15-keto-16,16-difluoro-PGE2], the figures for the “inhibition rate of increase of airway resistance” value in series [3] (dose 1 μg/kg) and in series [3] (dose 3 μg/kg) were 42% and 100%, respectively.
Take `CCCCC(F)C(=O)CC[C@H]1[C@H](CC)CC(=O)[C@@H]1C/C=C\CCCC(=O)OCC` (stereo partly shown) [compound 37]: in series [1] (Cavia porcellus), the IC20 was determined as 400 nM and the IC50 was found to be 8000 nM.
As for `CCCCCCC(=O)CC[C@H]1[C@H](O)CC(=O)[C@@H]1CCCCCCC(=O)O` [compound 59], in series [1] (Cavia porcellus), the IC20 came to 1000 nM and the IC50 was 4000 nM.
As to `CCCCCCCC(=O)CC[C@H]1[C@H](O)CC(=O)[C@@H]1C/C=C\CCCC(=O)OCC` [compound 51], in series [1] (Cavia porcellus), the IC20 came out at 1000 nM and the IC50 was 10000 nM.
`CCCCC[C@H](O)/C=C/[C@H]1[C@H](O)CC(=O)[C@@H]1C/C=C\CCCC(=O)O` [Test drug 57, (z)-7-{(1R,2R,3R)-3-hydroxy-2-[(E)-(3S)-3-hydroxy-1-octenyl]-5-oxo-cyclopentyl}-hept-5-enoic acid, reference compound]: the “inhibition rate of increase of airway resistance” value in series [3] (dose 3 μg/kg) turned out to be 92%.
Regarding `CCCCC(C)(C)C(=O)CC[C@H]1[C@H](O)CC(=O)[C@@H]1C/C=C\CCCC(=O)OC` [compound 30], in series [1], the IC20 worked out at 600 nM and the IC50 worked out at 2000 nM.
On to `COC(=O)CCC/C=C\C[C@H]1C(=O)C[C@@H](O)[C@@H]1CCC(=O)CCCC(C)C` [compound 40], for which, in series [1] (Cavia porcellus), the IC20 was determined as 2000 nM and the IC50 came to 40000 nM.
Regarding `CCCCC(F)C(=O)CC[C@H]1[C@H](O)CC(=O)[C@@H]1C/C=C\CCCC(=O)OCC` (stereo partly shown) [compound 35], in series [1] (Cavia porcellus), the IC20 came out at 900 nM and the IC50 stood at 20000 nM.
Turning to `COCCCCCC(=O)CC[C@H]1[C@H](O)CC(=O)[C@@H]1CC#CCCCC(=O)OC` [compound 46], the IC20 in series [1] (Cavia porcellus) amounted to 10000 nM.
In the case of `CCOC(=O)CCC/C=C\C[C@H]1C(=O)C[C@@H](O)[C@@H]1CCC(=O)CCCC(C)C` [compound 41], the IC20 in series [1] (Cavia porcellus) was 4000 nM.
For the molecule `CCCCC[C@H](O)/C=C/[C@H]1[C@H](O)CC(=O)[C@@H]1CCCCCCC(=O)O` [compound 56], in series [1] (Cavia porcellus), the IC20 amounted to 2 nM and the IC50 was 80 nM.
As for `COCCCCCC(=O)CC[C@H]1[C@H](O)CC(=O)[C@@H]1C/C=C\CCCC(=O)OC` [compound 42], in series [1] (Cavia porcellus), the IC20 came out at 10000 nM.
With `CC(C)=CCCCCC(=O)CC[C@H]1[C@H](O)CC(=O)[C@@H]1C/C=C\CCCC(=O)O` [compound 48], the IC20 in series [1] (Cavia porcellus) is 10000 nM.
For `COCCCC(=O)CC[C@H]1[C@H](O)CC(=O)[C@@H]1C/C=C\CCCC(=O)OC` [compound 47], in series [1] (Cavia porcellus), the IC20 came to 600 nM and the IC50 is 3000 nM.
`COC(=O)CCCCC(=O)CC1C(=O)CC(O)C1CCC(=O)CCCC(C)C` (stereo not shown) [compound 13]: in series [1], the IC20 was found to be 1000 nM and the IC50 is 30000 nM.
Taken in the same sequence, the figures for `CCCCC(C)C(=O)CCC1C(O)CC(=O)C1CC(=O)CCCCC(=O)OC` (stereo not shown) [compound 9] were 100 nM and 400 nM.
In the case of `CCCCC(C)C(=O)CC[C@H]1[C@H](O)CC(=O)[C@@H]1C/C=C\CCCC(=O)OC` (stereo partly shown) [compound 27], in series [1], the IC20 was 80 nM and the IC50 turned out to be 400 nM.
On to `COC(=O)CCC/C=C\C[C@H]1C(=O)C[C@@H](O)[C@@H]1CCC(=O)CCCCC=C(C)C` [compound 49], for which the IC20 in series [1] (Cavia porcellus) came to 7000 nM.
For `CCCCC(C)(C)C(=O)CCC1C(O)CC(=O)C1CC=CCCCC(=O)OCC` (stereo not shown) [compound 31], in series [1], the IC20 turned out to be 400 nM and the IC50 was found to be 2000 nM.
For `CCOC(=O)CCCCC(=O)CC1C(=O)CC(O)C1CCC(=O)CCCC(C)C` (stereo not shown) [compound 14], in series [1], the IC20 was determined as 900 nM and the IC50 came out at 30000 nM.
On to `CCCCCC(=O)CC[C@H]1[C@H](C)CC(=O)[C@@H]1C/C=C\CCCC(=O)OCC` [compound 38], for which, in series [1] (Cavia porcellus), the IC20 amounted to 600 nM and the IC50 was 7000 nM.

The values above are taken from patent US5362751A, “Tracheobronchodilator using 16-substituted PGEs” (priority 1988, dated 1994).
